One may read the IC50 as the concentration at which inhibition is half-maximal. Higher therefore signals lower potency.

The values below come from patent US11560368B2, “Apoptosis signal-regulating kinase 1 inhibitors and methods of use thereof” (Enanta Pharmaceuticals, Inc., priority 2017, dated 2023).

The target of the experiment is ASK1 kinase (Homo sapiens (Human), UniProt Q99683). In words: ASK1 kinase inhibition, HTRF KinEASE-STK TR-FRET assay. In kind it is biochemical. The following applies: 5 nM ASK1, 1 uM STK3 peptide substrate, 100 uM ATP, 3 hours. The protocol: The ability (IC50) of compounds to inhibit ASK1 kinase activity was determined by HTRF® KinEASE™ Assay System.
Sequence of ASK1 kinase (Q99683 whole entry): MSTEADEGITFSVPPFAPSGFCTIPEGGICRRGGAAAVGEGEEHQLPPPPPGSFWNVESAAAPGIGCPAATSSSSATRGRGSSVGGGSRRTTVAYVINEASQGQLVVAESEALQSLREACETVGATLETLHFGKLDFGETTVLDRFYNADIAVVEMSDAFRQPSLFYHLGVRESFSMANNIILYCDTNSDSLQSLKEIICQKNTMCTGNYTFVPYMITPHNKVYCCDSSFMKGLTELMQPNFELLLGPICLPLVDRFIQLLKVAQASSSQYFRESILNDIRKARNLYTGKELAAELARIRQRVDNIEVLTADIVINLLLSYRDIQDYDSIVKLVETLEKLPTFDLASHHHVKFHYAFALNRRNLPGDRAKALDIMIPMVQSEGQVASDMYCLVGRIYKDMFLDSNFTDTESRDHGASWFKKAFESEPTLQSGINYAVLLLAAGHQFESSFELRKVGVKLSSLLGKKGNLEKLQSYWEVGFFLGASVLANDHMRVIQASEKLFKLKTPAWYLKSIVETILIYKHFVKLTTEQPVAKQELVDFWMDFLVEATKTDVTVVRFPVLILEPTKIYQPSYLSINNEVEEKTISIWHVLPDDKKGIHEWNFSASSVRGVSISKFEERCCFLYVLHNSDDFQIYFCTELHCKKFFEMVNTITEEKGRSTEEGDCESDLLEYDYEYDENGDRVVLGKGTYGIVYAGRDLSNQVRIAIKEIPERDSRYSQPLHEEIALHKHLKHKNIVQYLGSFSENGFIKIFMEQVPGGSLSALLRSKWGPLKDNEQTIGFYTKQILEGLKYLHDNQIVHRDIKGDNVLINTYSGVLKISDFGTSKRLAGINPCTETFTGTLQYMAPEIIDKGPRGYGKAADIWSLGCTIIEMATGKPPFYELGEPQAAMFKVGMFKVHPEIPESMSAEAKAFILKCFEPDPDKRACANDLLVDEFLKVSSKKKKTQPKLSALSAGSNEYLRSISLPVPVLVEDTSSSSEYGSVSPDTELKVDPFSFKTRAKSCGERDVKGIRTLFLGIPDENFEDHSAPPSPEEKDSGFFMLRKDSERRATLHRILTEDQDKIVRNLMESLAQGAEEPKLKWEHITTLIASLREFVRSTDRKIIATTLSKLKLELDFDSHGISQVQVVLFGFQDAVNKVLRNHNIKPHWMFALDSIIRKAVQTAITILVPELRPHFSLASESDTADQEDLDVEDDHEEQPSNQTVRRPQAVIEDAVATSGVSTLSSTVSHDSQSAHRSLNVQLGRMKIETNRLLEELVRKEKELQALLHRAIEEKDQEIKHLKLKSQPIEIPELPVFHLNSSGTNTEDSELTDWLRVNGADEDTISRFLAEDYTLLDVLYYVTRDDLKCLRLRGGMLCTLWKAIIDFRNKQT
ASK1 was purchased from Thermofisher (Catalogue # PV4011), ATP was purchased from Sigma (Catalogue # A7699), HTRF® KinEASE™ Assay System was obtained from Cisbio (Bedford, Mass.). ½ A Area plate was purchased from Perkin Elmer (Catalogue # #6005560). HTRF® KinEASE™-STK is a generic method for measuring serine/threonine kinase activities using a time-resolved fluorescence resonance energy transfer (TR-FRET) immunoassay. The IC50 value for each compound was determined in the presence of compound (various concentration from 0 to 10 μM) and a fixed amount of ATP and peptide substrates. The test compound, 1 uM STK3 peptide substrate, and 5 nM of ASK1 kinase are incubated with kinase reaction buffer containing 50 mM HEPES pH 7.5, 0.01% BRU-35, 10 mM MgCl2, and 1 mM EGTA for 30 minutes. 100 uM ATP is added to start kinase reaction and incubated for 3 hours. The STK3-antibody labeled with Eu^3+-Cryptate and 125 nM streptavidin-XL665 are mixed in a single addition with stop reagents provided by the Cisbio kit used to stop the kinase reaction. Fluorescence is detected using an Envision Multilabeled 2014 reader from PerkinElmer. The Fluorescence is measured at 615 nm (Cryptate) and 665 nm (XL665) and a ratio of 665 nm/615 nm is calculated for each well. […] IC50 was determined by XLfit 5.3. […]
On the technique in general: TR-FRET usually uses a lanthanide donor and a delayed reading to cut background.

For `Cc1cc(F)c(C(=O)Nc2cccc(-c3nnnn3C(C)C)n2)cc1-n1cnc(C(F)(F)F)c1` [Example 2b], the IC50 was 100 to 1000 nM.
